14 compounds from ChEMBL document CHEMBL3217509, “Discovery of an HIV integrase inhibitor with an excellent resistance profile” (Medchemcomm, 2013) can be followed below.

SMILES strings stand for the structures. A value given as a limit tells only on which side of the number the result lay.

The nature of data set [1]: Intrinsic clearance in human liver microsomes assessed per mg of protein by LC-MS/MS analysis in presence of UDPGA. The conditions noted are these: read-out: CLH. It is filed as ADME. On the technique in general: Microsomes from liver hold many membrane-bound enzymes, among them those of drug oxidation.
Data set [2] is described as follows: Intrinsic clearance in human liver microsomes assessed per mg of protein by LC-MS/MS analysis. It is filed as ADME. As to conditions: read-out: CLH.
Data set [3] can be described thus: Intrinsic clearance in human hepatocytes assessed assessed per million of cells by LC-MS/MS analysis. It counts as ADME, cell-based, Hepatocyte. The conditions noted are these: read-out: CLH.
Data set [4] deals with Human immunodeficiency virus 1. Description: Antiviral activity against HIV1 NL4-3 infected in human MT2 cells after 3 days by human JC53BL cell-based beta-galactosidase reporter gene assay. The conditions noted are these: Human immunodeficiency virus 1, NL4-3, JC53BL, 72 h. It is filed as functional, organism-based. (In general: In a reporter assay the amount or activity of a reporter protein is the signal.)

Data set [5] in a line: Inhibition of DNA polymerase beta (unknown origin). The arrangement: species or system Homo sapiens.
Data set [6] is described as follows: Inhibition of DNA polymerase alpha (unknown origin). The arrangement: species or system Homo sapiens.
Data set [7] in a line: Inhibition of DNA polymerase gamma (unknown origin). The arrangement: species or system Homo sapiens.
Data set [8] in a line: Aqueous solubility of the compound at pH 7.4. It counts as physicochemical. As to conditions: buffer.

On to `Cc1nc2c(ncc3c2ccn3Cc2ccc(F)cc2)c(=O)n1O`, for which the microsomal CLint in data set [1] worked out at 80.2 µL/min/mg; in data set [2], 21.3 µL/min/mg. For the same compound, in data set [3], the hepatocyte CLint stood at 14.1 µL/min/1e6 cells. For the same compound, the IC50 in data set [4] was 451 nM.
As to `O=C1Nc2ccc(Cl)cc2[C@@](C#CC2CC2)(C(F)(F)F)O1` [EFAVIRENZ], the IC50 is over 50000 nM in data set [5], over 50000 nM in data set [6] and at most 50000 nM in data set [7].
On to `Cc1cn([C@H]2CC[C@@H](COP(=O)(O)OP(=O)(O)OP(=O)(O)O)O2)c(=O)[nH]c1=O`, for which the 50% inhibitory concentration (IC50) stood at 1960 nM in data set [5] and 7170 nM in data set [6].
For `CC1(C)CN(O)C(=O)c2ncc3c(ccn3Cc3ccc(F)cc3)c21`, in data set [1], the microsomal CLint was determined as 170 µL/min/mg. For the same compound, the hepatocyte CLint in data set [3] is 64.7 µL/min/1e6 cells. Besides, in data set [4], it took 1 nM to reach half-maximal inhibition (IC50).
For `C[C@@]1(CO)[C@H](O)CC[C@@]2(C)[C@H]1CC[C@H]1C[C@@H]3C[C@@]12CC[C@]3(O)CO` [APHIDICOLIN], the IC50 in data set [5] stood at 1960 nM; in data set [6] it was 7170 nM.
`Cc1cn([C@H]2C[C@H](N=[N+]=[N-])[C@@H](COP(=O)(O)OP(=O)(O)OP(=O)(O)O)O2)c(=O)[nH]c1=O` [ZIDOVUDINE TRIPHOSPHATE]: the IC50 in data set [5] was 1960 nM; in data set [6] it was 7170 nM; in data set [7] it was 3700 nM.
For `COc1cc(F)ccc1Cn1ccc2c3c(ncc21)C(=O)N(O)C3(C)C`, the microsomal CLint in data set [1] was 4.8 µL/min/mg; in data set [2], under 8 µL/min/mg. In data set [3], the hepatocyte CLint worked out at 28.8 µL/min/1e6 cells. This compound had a half-inhibitory concentration (IC50) in data set [4] of over 7480 nM.
On to `COc1cc(F)ccc1Cn1ccc2c3c(ncc21)C(=O)N(O)C(C)(C)C3`, for which the microsomal CLint in data set [1] is 19.7 µL/min/mg; in data set [2], 17 µL/min/mg. Moreover, in data set [3], the hepatocyte CLint was 37.7 µL/min/1e6 cells. For the same compound, inhibition in data set [4] was half-maximal at 3.9 nM (IC50).
Compound `O=C(NCCO)c1c(O)c2ncc3c(ccn3Cc3ccc(F)cc3)c2[nH]c1=O` came in with a solubility in data set [8] of under 1 µg/mL. For the same compound, the microsomal CLint in data set [1] was under 3.5 µL/min/mg; in data set [2], 17.3 µL/min/mg. The hepatocyte CLint in data set [3] came out at 2.9 µL/min/1e6 cells. Also, the IC50 in data set [4] came to 1 nM.
`CCOc1cc(F)ccc1Cn1ccc2c3c(ncc21)C(=O)N(O)CC3`: the values for the microsomal CLint in data set [1] and in data set [2] were 5 µL/min/mg and under 8 µL/min/mg, respectively. Further, the hepatocyte CLint in data set [3] came out at 23.2 µL/min/1e6 cells. Besides, the half-maximal inhibitory concentration (IC50) in data set [4] was found to be 4.1 nM.
Taken in the same sequence, the figures for `O=C1c2ncc3c(ccn3Cc3ccc(F)cc3OC(F)F)c2CCN1O` were 5.8 µL/min/mg, 15.4 µL/min/mg, 17 µL/min/1e6 cells and 5 nM.
For the compound `O=C1c2ncc3c(ccn3Cc3ccc(F)cc3)c2CCN1O`, the microsomal CLint in data set [1] is 24 µL/min/mg; in data set [2], 19.2 µL/min/mg. Further, the hepatocyte CLint in data set [3] turned out to be 29.6 µL/min/1e6 cells.
`COCCNC(=O)c1c(O)c2ncc3c(ccn3Cc3ccc(F)cc3)c2[nH]c1=O` registered a solubility in data set [8] of under 1 µg/mL. For the same compound, the microsomal CLint in data set [1] was found to be 3.5 µL/min/mg; in data set [2], 32 µL/min/mg. In addition, the hepatocyte CLint in data set [3] worked out at 5.9 µL/min/1e6 cells. In data set [4], this compound came in with an IC50 of 6 nM.
For `COc1cc(Cn2ccc3c4c(ncc32)C(=O)N(O)CC4)ccc1F`, the microsomal CLint came out at 18 µL/min/mg in data set [1] and 12.5 µL/min/mg in data set [2]. Also, in data set [3], the hepatocyte CLint was 34.3 µL/min/1e6 cells. The same compound showed a 50% inhibitory concentration (IC50) in data set [4] of 19 nM.

The IC50 is the concentration that inhibits the measured activity by half. Low readings indicate inhibition by little substance, high ones a need for much substance. The term solubility denotes how much of the substance goes into solution per volume.
